Experimental data as given in patent US9422267B2, “Fused pyrimidine compounds and use thereof” (Medivation Technologies, Inc., priority 2012, dated 2016).
Values joined by “and” are separate entries in the source; they are usually repeats but may differ in a detail not shown here. Equal entries are not always repeated. Where two headings read alike, the source gives them in different places.

Columns and labels:
HCC 1187 = assay: Cell Titer-Glo cell viability: HCC 1187; type: cell-based; conditions: Homo sapiens, HCC1187; HCC-1187, breast cancer; 72 h incubation, Cell Titer-Glo
Procedure: (§1) Compound nos. […] This panel of cell lines includes an ER− breast carcinoma, primary breast ductal carcinoma, prostate adenocarcinoma, mammary adenocarcinoma, mammary ductal carcinoma, mammary ductal carcinoma, ovary adenocarcinoma, ER+ breast carcinoma, ER-HER2+ mammary ductal carcinoma and an ER+ mammary ductal carcinoma, respectively.
(§2) This assay quantitates the ATP present in order to determine the number of viable cells in culture. Briefly, the compounds were incubated with the cells for 72 h, followed by cell lysis. The resulting luminescent signal is proportional to the amount of ATP present and, therefore, directly proportional to the number of cells present in culture.
(§3) Compounds 2b, 5, 6b and 10a were tested along with derivatives in viability assays as described above by Caliper LifeSciences Systems (Hanover, Md.), in A549, HCT-15, HCT-116, MCF-7, MDA-MB-231, OVCAR3, T47D, COLO205, HT-29, BT-20, HCC1187, HL-60, MDA-MB-175, SW-620, and UACC812 cells.

LNCaP = assay: Cell Titer-Glo cell viability: LNCaP; type: cell-based; conditions: Homo sapiens, Prostate cancer, 72 h incubation, Cell Titer-Glo
Procedure: as §1, §2

NTRK2 (TRKB) = NTRK2 (TRKB) (Homo sapiens, UniProt Q16620); assay: Caliper kinase profiling: NTRK2 (TRKB)
NTRK2 (TRKB), sequence (Q16620 32-822): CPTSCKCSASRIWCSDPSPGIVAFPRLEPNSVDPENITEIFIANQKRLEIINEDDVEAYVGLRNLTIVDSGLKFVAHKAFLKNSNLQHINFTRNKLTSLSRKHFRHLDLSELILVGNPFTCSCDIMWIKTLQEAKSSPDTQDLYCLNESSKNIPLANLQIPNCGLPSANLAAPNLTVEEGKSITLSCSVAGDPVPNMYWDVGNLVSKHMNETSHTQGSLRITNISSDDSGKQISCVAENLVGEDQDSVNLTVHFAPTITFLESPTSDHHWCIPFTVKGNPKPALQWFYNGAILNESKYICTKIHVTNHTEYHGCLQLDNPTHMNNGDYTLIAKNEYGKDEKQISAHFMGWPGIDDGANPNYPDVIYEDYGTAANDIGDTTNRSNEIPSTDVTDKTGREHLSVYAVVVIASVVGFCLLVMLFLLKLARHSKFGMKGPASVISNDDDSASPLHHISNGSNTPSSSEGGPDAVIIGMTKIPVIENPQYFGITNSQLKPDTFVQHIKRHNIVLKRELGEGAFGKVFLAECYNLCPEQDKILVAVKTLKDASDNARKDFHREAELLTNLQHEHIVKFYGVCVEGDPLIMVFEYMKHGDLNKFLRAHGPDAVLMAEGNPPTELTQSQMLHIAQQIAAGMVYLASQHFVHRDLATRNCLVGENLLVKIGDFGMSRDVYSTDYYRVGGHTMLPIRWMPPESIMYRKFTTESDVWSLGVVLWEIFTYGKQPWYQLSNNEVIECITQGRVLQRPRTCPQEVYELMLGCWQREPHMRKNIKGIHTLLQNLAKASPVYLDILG
Procedure: (§7) The compound was tested at concentrations of 1.0×10^−8 and 1.0×10^−9 M in the RapidKinase192™ panel in duplicate. […] The screening was performed using the Caliper EZReader2, a 4-sipper LabChip, and ProfilerPro Kinase Selectivity Assay Kits 1 and 2. The assay measures the conversion of a fluorescent peptide substrate to a phosphorylated product. Briefly, the reaction mixture was introduced through a capillary sipper onto the microfluidic chip, where the substrate and product were electrophoretically separated and detected by laser-induced fluorescence. The time-dependent fluorescence signal indicates the extent of the reaction.
(§8) The kinases tested were AurA, AurB, AurC, AXL, FAK2, IGF1R, InsR, Mer, MET, TrkB and TrkC.
(§9) The assays were conducted using the Caliper LabChip 3000 and a 12-sipper LabChip as described above.

MDA MB 231 = assay: Cell Titer-Glo cell viability: MDA MB 231; type: cell-based; conditions: Homo sapiens, MDAMB231, breast cancer, 72 h incubation, Cell Titer-Glo
Procedure: as §1, §2, §3

TRKC (NTRK3) = TRKC (NTRK3) (Homo sapiens, UniProt Q16288); assay: Caliper kinase profiling: TRKC (NTRK3)
TRKC (NTRK3), sequence (Q16288 32-839): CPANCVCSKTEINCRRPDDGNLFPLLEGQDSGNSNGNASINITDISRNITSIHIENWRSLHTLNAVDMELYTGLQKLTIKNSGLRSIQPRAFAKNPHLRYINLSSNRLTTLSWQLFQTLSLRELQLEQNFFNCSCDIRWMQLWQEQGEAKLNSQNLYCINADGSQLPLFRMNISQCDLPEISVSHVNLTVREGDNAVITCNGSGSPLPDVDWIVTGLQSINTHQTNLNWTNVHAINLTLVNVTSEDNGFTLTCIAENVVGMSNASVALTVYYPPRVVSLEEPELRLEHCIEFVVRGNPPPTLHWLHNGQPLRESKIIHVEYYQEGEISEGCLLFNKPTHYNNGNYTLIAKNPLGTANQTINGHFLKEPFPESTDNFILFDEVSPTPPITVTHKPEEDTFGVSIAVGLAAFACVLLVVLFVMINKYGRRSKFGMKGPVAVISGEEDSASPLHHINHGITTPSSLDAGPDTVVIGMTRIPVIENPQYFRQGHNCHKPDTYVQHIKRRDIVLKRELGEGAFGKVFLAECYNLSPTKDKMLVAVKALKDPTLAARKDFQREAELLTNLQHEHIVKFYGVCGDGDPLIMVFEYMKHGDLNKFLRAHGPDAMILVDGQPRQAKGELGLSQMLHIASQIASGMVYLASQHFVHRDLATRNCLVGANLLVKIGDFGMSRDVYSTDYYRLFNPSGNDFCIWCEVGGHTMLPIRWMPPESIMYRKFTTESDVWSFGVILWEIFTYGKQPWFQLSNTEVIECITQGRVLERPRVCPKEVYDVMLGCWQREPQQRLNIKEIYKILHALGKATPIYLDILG
Procedure: as §7, §8, §9

HL-60 = assay: Cell Titer-Glo cell viability: HL-60; type: cell-based, human; conditions: Homo sapiens, HL-60, 72 h
Procedure: as §2
(§4) Compound nos. […] These cell lines are derived from human lung carcinoma, colon adenocarcinoma, colon adenocarcinoma, colon carcinoma, acute promyelocytic leukemia, colon adenocarcinoma, colon adenocarcinoma (from metastatic site lymph node), respectively.
as §3

IR = target: T1, IR (Homo sapiens, UniProt P06213); assay: In vitro IR enzymatic assay (ADP-Glo kinase assay); type: biochemical
T1 construct: purchased Millipore 14-803
T1 sequence (P06213 28-1382): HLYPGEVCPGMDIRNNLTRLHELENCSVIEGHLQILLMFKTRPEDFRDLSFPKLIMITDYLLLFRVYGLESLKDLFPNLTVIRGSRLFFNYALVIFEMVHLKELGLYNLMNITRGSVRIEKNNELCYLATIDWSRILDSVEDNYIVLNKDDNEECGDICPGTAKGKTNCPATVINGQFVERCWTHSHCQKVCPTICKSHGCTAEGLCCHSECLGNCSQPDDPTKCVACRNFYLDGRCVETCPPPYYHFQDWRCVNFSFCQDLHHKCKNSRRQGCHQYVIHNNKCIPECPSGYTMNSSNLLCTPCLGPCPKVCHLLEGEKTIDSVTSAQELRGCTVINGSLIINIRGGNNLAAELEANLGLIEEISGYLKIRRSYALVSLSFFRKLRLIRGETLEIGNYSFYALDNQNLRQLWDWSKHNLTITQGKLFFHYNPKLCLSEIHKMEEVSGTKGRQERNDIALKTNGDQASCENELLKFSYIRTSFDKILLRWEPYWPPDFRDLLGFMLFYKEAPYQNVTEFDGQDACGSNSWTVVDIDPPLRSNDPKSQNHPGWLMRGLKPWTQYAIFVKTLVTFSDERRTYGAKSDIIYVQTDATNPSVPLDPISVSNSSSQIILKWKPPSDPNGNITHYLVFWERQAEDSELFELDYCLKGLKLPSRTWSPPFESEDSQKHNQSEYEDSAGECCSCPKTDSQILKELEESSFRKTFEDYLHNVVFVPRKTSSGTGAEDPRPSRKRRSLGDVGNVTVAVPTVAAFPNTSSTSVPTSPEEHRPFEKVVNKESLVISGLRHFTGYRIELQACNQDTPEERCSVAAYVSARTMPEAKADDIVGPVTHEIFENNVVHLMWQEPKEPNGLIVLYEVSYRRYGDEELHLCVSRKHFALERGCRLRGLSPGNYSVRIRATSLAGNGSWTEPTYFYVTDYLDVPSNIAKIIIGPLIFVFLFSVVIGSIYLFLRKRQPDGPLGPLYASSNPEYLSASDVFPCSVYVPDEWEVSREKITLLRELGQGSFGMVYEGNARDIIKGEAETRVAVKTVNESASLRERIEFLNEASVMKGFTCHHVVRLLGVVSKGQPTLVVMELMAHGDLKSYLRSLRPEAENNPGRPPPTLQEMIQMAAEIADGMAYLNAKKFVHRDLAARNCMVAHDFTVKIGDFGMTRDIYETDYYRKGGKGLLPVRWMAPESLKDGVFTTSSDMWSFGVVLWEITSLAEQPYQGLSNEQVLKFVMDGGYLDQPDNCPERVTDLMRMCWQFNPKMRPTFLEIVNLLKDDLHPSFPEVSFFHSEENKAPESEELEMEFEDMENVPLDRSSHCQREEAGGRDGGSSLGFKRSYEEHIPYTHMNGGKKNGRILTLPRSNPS
Procedure: (§5) IC50 values of the compounds of the invention against IGF-1R and IR were measured in vitro using an ADP-Glo kinase assay Kit (Promega). […] Kinase reactions in both assays were conducted at 30° C. for 20 min with increasing concentrations of compounds of the invention.

A549 = assay: Cell Titer-Glo cell viability: A549; type: cell-based; conditions: Homo sapiens, A549, 72 h, A549, non-small lung carcinoma
Procedure: as §2, §4, §3

MDA MB 175 = assay: Cell Titer-Glo cell viability: MDA MB 175; type: cell-based; conditions: MDA-MB-175, breast cancer; 72 h incubation, Cell Titer-Glo
Procedure: as §1, §2, §3
(§6) The inhibitory effects of Compound 8a were tested in two cell lines.

BT-20 = assay: Cell Titer-Glo cell viability: BT-20; type: cell-based; conditions: Homo sapiens; BT-20, breast cancer; 72 h incubation, Cell Titer-Glo
Procedure: as §1, §2, §3

IGF1R = IGF1R (Homo sapiens, UniProt P08069); assay: In vitro IGF-1R enzymatic assay (ADP-Glo kinase assay); type: biochemical; set-up: purchased Millipore 14-802
IGF1R, sequence (P08069 31-1367): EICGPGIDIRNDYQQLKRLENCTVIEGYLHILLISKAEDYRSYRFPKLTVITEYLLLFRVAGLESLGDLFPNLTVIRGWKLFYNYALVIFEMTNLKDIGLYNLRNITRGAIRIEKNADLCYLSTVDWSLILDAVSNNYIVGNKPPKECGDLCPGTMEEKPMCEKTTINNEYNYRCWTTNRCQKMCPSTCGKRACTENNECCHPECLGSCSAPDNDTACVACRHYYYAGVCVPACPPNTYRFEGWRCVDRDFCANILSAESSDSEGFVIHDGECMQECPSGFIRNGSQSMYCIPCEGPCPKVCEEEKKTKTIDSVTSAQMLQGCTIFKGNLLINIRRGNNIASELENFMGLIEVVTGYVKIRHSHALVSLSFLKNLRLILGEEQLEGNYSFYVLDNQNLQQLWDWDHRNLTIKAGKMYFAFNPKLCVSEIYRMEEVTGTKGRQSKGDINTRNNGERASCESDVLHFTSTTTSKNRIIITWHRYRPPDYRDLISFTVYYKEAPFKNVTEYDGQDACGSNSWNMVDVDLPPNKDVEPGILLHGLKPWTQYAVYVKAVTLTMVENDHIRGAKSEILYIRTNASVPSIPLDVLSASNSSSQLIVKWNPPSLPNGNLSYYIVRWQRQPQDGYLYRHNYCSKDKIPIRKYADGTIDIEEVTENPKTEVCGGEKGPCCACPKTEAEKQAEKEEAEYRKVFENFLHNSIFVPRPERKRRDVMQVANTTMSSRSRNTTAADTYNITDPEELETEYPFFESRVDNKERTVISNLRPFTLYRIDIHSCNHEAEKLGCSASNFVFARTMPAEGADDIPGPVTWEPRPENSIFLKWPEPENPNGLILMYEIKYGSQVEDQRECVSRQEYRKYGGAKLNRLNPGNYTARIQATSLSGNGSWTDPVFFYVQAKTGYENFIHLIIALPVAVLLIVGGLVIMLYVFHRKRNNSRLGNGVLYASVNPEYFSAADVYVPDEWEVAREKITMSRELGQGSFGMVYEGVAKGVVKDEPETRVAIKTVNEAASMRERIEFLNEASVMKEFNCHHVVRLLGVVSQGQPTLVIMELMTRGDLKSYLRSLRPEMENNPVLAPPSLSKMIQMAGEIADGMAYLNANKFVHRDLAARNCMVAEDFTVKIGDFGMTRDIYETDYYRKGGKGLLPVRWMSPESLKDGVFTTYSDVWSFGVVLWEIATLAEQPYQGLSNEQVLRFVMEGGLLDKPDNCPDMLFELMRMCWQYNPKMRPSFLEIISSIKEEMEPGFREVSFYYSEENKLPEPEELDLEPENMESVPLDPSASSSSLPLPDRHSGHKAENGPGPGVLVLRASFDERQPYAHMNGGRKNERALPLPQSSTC
Procedure: as §5

OVCAR-3 = assay: Cell Titer-Glo cell viability: OVCAR-3; type: cell-based; conditions: Homo sapiens, OVCAR3, ovarian cancer, 72 h incubation, Cell Titer-Glo
Procedure: as §1, §2, §3

HCT-15 = assay: Cell Titer-Glo cell viability: HCT-15; type: cell-based; conditions: Homo sapiens, HCT-15, 72 h, HCT15, colon carcinoma
Procedure: as §2, §4, §3

SW-620 = assay: Cell Titer-Glo cell viability: SW-620; type: cell-based; conditions: Homo sapiens, SW-620, 72 h, SW-620, metastatic colorectal cancer
Procedure: as §2, §4, §3

MCF-7 = assay: Cell Titer-Glo cell viability: MCF-7; type: cell-based; conditions: Homo sapiens; MCF7, breast cancer; 72 h incubation, Cell Titer-Glo
Procedure: as §1, §2, §3

[1] = test system: Akt phosphorylation induced by IGF-1R in HT-29 cells; assay: Western blot analysis of Akt phosphorylation induced by IGF-1R; type: cell-based, Human; conditions: then IGF-1 10 ng/mL 10 min, HT-29
T47D = assay: Cell Titer-Glo cell viability: T47D; type: cell-based; conditions: Homo sapiens, breast cancer, 72 h incubation, Cell Titer-Glo
Procedure: as §1, §2, §3

UACC 812 = assay: Cell Titer-Glo cell viability: UACC 812; type: cell-based; conditions: Homo sapiens; UACC 812, breast cancer; 72 h incubation, Cell Titer-Glo
Procedure: as §1, §2, §3, §6

FAK2(PTK2b) = FAK2(PTK2b) (Homo sapiens, UniProt Q14289); assay: Caliper kinase assay: FAK2(PTK2b); conditions: 0.01 μM
Procedure: as §7, §8, §9

HCT-116 = assay: Cell Titer-Glo cell viability: HCT-116; type: cell-based; conditions: Homo sapiens, HCT116, colon carcinoma, 72 h incubation, Cell Titer-Glo
Procedure: as §2, §4, §3

[2] = read-out: Average % Inh @ 10 nM
[3] = read-out: Average % Inh @ 100 nM
[4] = HL60, promyelocytic leukemia, 72 h incubation, Cell Titer-Glo
[5] = 72 h incubation, Cell Titer-Glo
[6] = activated IGF-1R, read-out: IC50

Row | IC50 (HCC 1187) [nM] | IC50 (LNCaP) [nM] | IC50 (HL-60; [4]) [nM] | IC50 (IR; activated IR, read-out: IC50) | IC50 (A549; [5]) [nM] | IC50 (BT-20) [nM] | IC50 (IGF1R; [6]) | IC50 (OVCAR-3) [nM] | IC50 (HCT-15; [5]) [nM] | IC50 (SW-620; [5]) [nM] | IC50 (MCF-7) [nM] | IC50 (T47D) [nM] | SMILES | IC50 (MDA MB 231) [nM] | IC50 (MDA MB 175) [nM] | phosphorylated AKT levels normalized to actin levels (pAKT/actin) ([1]; 1 nM compound 2 h) | phosphorylated AKT levels normalized to actin levels (pAKT/actin) ([1]; 10 nM compound 2 h) | phosphorylated AKT levels normalized to actin levels (pAKT/actin) ([1]; 100 nM compound 2 h) | IC50 (UACC 812) [nM] | further results
1 | 100 | < 1000 | < 1000 | 5.7e-09 M | < 1000 | 1000 | 6.1e-09 M | < 1000 | 1000 | < 1000 | 1000 | 1000 | O=C(Nc1ccc(F)nc1)C1CCCN1c1nc2c(c(Nc3cc(C4CC4)[nH]n3)n1)CCC2 (single isomer, unassigned) [Compound 2b, 1-(4-(5-cyclopropyl-1H-pyrazol-3-ylamino)-6,7-dihydro-5H-cyclopenta[d]pyrimidin-2-yl)-N-(6-fluoropyridin-3-yl)pyrrolidine-2-carboxamide] | 1000 | < 10000 | 0.80 | 0.22 | 0.03 | < 10000 | inhibition at 0.01 µM (NTRK2 (TRKB); [2]): > 60%; inhibition at 0.1 µM (NTRK2 (TRKB); [3]): > 60%; inhibition at 1 µM (NTRK2 (TRKB); read-out: Average % Inh @ 1 μM): > 60%; inhibition at 0.01 µM (TRKC (NTRK3); [2]): > 60%; inhibition at 0.1 µM (TRKC (NTRK3); [3]): > 60%; inhibition at 1 µM (TRKC (NTRK3); read-out: Average % Inh @ 1 μM): > 60%; IC50 (HL-60; HL60, promyelocytic leukemia (second entry of the table), 72 h): < 10 nM; IC50 (HL-60; HL-60, promyelocytic leukemia, 72 h): < 10000 nM; Hill Slope N1 (IR; IR, ATP 50 μM, run N1): 1.34; IC50 (IR; IR, ATP 50 μM, run N1, read-out: IC50 (M) N1): 5.51e-09 M; Hill Slope N2 (IR; IR, ATP 50 μM, run N2): 1.13; IC50 (IR; IR, ATP 50 μM, run N2, read-out: IC50 (M) N2): 4.07e-09 M; IC50 (A549; 72 h): 1000 nM; Hill Slope N1 (IGF1R; IGF-1R, ATP 100 μM, run N1): 1.195; IC50 (IGF1R; IGF-1R, ATP 100 μM, run N1, read-out: IC50 (M) N1): 7.24e-09 M; Hill Slope N2 (IGF1R; IGF-1R, ATP 100 μM, run N2): 1.384; IC50 (IGF1R; IGF-1R, ATP 100 μM, run N2, read-out: IC50 (M) N2): 5.29e-09 M; IC50 (HCT-15; 72 h): < 10000 nM; IC50 (SW-620; 72 h): 100 nM
2 | < 1000 | 100 | < 100 | 8.3e-09 M and 1.2e-08 M | < 1000 | < 10000 | 1.3e-08 M and 1.7e-08 M | < 1000 | < 10000 | < 1000 | < 1000 | < 1000 | O=C(Nc1ccc(F)nc1)C1CCN1c1nc2c(c(Nc3cc(C4CC4)[nH]n3)n1)CCC2 (racemic) [Compound 5, 1-(4-(5-cyclopropyl-1H-pyrazol-3-ylamino)-6,7-dihydro-5H-cyclopenta[d]pyrimidin-2-yl)-N-(6-fluoropyridin-3-yl)azetidine-2-carboxamide] | < 10000 | 1000 | 0.61 | 0.04 | 0.00 | < 100000 | inhibition of TrkB in panel of 11 kinases (NTRK2 (TRKB); 0.01 μM): strongly inhibited; inhibition of TrkC in panel of 11 kinases (TRKC (NTRK3); 0.01 μM): strongly inhibited; inhibition of FAK2 in panel of 11 kinases (FAK2(PTK2b)): strongly inhibited; IC50 (HCT-116): < 10000 nM; inhibition at 0.03 µM (IR; activated IR, 30 nM, average, read-out: % Inh @ 30 nM Avg): 76%; inhibition at 0.03 µM (IGF1R; activated IGF-1R, 30 nM, average, read-out: % Inh @ 30 nM Avg): 66%
